50 molecules from US11447486B2, “2-amino-benzimidazole derivatives and their use as 5-lipoxygenase and/or prostaglandin E synthase inhibitors” (INSTITUT PASTEUR KOREA, priority 2014, dated 2022) can be followed below.

Test [1] has as its system Rat basophilic leukemia (RBL) cells. Kind of test: LTB4 secretion assay in RBL (rat basophilic leukemia cells). The test is classed as cell-based. The settings on record: Rattus norvegicus, RBL. The method in brief: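 LTB4 released into supernatant was measured by EIA after 10 min at 37 °C with arachidonic acid (2.5 uM final) and calcium ionophore A23187 (5 uM final). Before stimulation, cells plated 2×10^4/well overnight received compound doses (5 nM to 100 uM) for 15 min in 0.5% FBS medium.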

The target in another test is T1, human 5-LOX (Homo sapiens, UniProt P09917).
T1 construct: purchased Cayman 60402; host or cells: insect cells (lysate)
T1 sequence (P09917 1-674): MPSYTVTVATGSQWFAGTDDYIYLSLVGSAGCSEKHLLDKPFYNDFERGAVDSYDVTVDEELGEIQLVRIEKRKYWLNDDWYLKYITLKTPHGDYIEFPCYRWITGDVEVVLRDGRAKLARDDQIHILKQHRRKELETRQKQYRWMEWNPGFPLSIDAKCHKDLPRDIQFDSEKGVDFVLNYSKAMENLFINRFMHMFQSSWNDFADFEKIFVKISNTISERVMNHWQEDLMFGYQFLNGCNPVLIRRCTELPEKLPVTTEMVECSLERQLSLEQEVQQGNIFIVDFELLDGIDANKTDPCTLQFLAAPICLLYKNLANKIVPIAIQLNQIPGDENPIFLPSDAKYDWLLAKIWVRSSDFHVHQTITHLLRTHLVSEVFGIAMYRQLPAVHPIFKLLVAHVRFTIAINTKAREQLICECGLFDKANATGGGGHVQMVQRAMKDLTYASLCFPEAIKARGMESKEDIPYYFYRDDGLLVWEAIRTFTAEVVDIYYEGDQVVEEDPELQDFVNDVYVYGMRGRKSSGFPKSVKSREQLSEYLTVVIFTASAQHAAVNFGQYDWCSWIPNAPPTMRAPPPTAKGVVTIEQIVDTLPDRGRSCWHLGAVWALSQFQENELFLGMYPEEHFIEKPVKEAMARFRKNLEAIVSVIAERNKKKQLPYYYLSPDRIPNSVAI
Kind of test: 5-LOX enzyme activity, fluorescence method (5-HPETE, H2DCFDA). The test is classed as biochemical. The settings on record: read-out: 5-LO (IC50). An outline of the steps: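 Fluorescence-based read-out, run entirely at room temperature. Enzyme mixture was exposed to a dose range of compound from 0.5 nM to 10 uM for 5 min before ATP and arachidonic acid were added to final levels of 100 uM and 3 uM.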

By EC50 is commonly meant the concentration needed to bring the measured effect to its halfway point. As usually defined, the IC50 is the concentration that inhibits the measured activity by half.

`CCn1c(NCc2ccc(Oc3ncc(C(F)(F)F)cn3)cc2)nc2ccc(Nc3cc(C(F)(F)F)n(C)n3)cc21` [Compound 521]: the EC50 in test [1] was less than 10 µM. The IC50 at human 5-LOX lay in the range of 1 to 10 µM.
The like results for `Cn1c(NCc2ccc(C(=O)Nc3ccc(Cl)cn3)cc2)nc2ccc(N)cc21` [Compound 310] were, in that order, greater than 20 µM and less than 1 µM.
In turn, `Cn1c(NCc2ccc(Oc3ncc(Cl)cn3)cc2F)nc2ccc(N)cc21` [Compound 380] showed a 50% effective concentration (EC50) in test [1] of less than 10 µM. Further, on human 5-LOX, the IC50 is less than 1 µM.
In test [1], `CN(C)c1nc2ccc(NCc3ccc(-c4cccc(=O)[nH]4)cc3)cc2[nH]1` [Compound 221] came in with an EC50 greater than 20 µM. Moreover, the IC50 at human 5-LOX is less than 1 µM.
For `CCC(Nc1nc2cc(N)ccc2[nH]1)c1ccc(Oc2ccc(Cl)cc2)cc1` (stereo not shown) [Compound 124] the same measures were less than 10 µM and less than 1 µM.
The like results for `Cn1c(NCc2ccc(Oc3cccnc3)cc2)nc2ccc(N)cc21` [Compound 224] were, in that order, less than 10 µM and less than 1 µM.
The like results for `Nc1ccc2nc(N)n(Cc3ccc(OCc4ccc(Cl)cn4)cc3)c2c1` [Compound 254] were, in that order, less than 10 µM and less than 1 µM.
With `CC(Cc1ccc(Cl)cc1Cl)Nc1nc2ccc(N)cc2n1Cc1ccccc1` (stereo not shown) [Compound 140], the EC50 in test [1] was less than 10 µM. In addition, on human 5-LOX, the IC50 was less than 1 µM.
In the case of `OCC(O)CNc1ccc2nc(NCc3ccc(Oc4ccc(Cl)cc4)cc3)[nH]c2c1` (stereo not shown) [Compound 215], in test [1], the EC50 was less than 10 µM. In addition, the IC50 at human 5-LOX was less than 1 µM.
The like results for `O=S(=O)(c1ccc(Cl)cc1)c1ccc(CNc2nc3cc(NC4COC4)ccc3[nH]2)cc1` [Compound 133] were, in that order, 10 to 20 µM and less than 1 µM.
The like results for `Cn1c(NC2(c3ccc(Oc4ncc(Cl)cn4)cc3)CC2)nc2ccc(N)cc21` [Compound 472] were, in that order, less than 10 µM and 1 to 10 µM.
Turning to `Cc1cc(Nc2cc(Cl)c3nc(NCc4ccc(Oc5ncc(Cl)cn5)cc4)n(C)c3c2)n[nH]1` [Compound 556], the EC50 in test [1] was less than 10 µM. Besides, on human 5-LOX, the IC50 was less than 1 µM.
For `CN(C)CCn1c(NCc2ccc(Oc3ccc(Cl)cn3)cc2)nc2ccc(N)cc21` [Compound 286] the same measures were less than 10 µM and less than 1 µM.
`Cn1c(NCc2ccc(Oc3ncc(Cl)c(C4CC4)n3)cc2)nc2ccc(NC3COC3)cc21` [Compound 398] returned an EC50 in test [1] of less than 10 µM. Further, at human 5-LOX, the IC50 was less than 1 µM.
For `Cn1c(NCc2ccc(Oc3ncc(Cl)cn3)cc2)nc2ccc(Nc3n[nH]cc3C(=O)NC3CC3)cc21` [Compound 483] the same measures were greater than 20 µM and less than 1 µM.
For `Nc1ccc2[nH]c(NCc3ccc(F)cc3)nc2c1` [Compound 28] the same measures were 10 to 20 µM and less than 1 µM.
Take `Cn1c(NCc2ccc(Oc3ccc4cc(F)ccc4n3)cc2)nc2ccc(N)cc21` [Compound 382]: the EC50 in test [1] is less than 10 µM. In addition, on human 5-LOX, the IC50 was less than 1 µM.
The like results for `CC(C)(O)Cn1c(NCc2ccc(Oc3ccc(Cl)cn3)cc2)nc2ccc(NC3COC3)cc21` [Compound 208] were, in that order, less than 10 µM and less than 1 µM.
The like results for `CN(C(=O)c1ccc(CNc2nc3ccc(N)cc3n2C)cc1)c1ccc(Cl)cn1` [Compound 319] were, in that order, greater than 20 µM and less than 1 µM.
For `CN(C)c1nc2ccc(NC3COC3)cc2n1CCOc1ccc(Cl)cc1` [Compound 40] the same measures were 10 to 20 µM and less than 1 µM.
`CCOC(=O)c1coc(-c2ccc(CNc3ccc4[nH]c(N(C)C)nc4c3)cc2)n1` [Compound 218] came in with an EC50 in test [1] of less than 10 µM. Moreover, on human 5-LOX, the IC50 was less than 1 µM.
Take `Cc1cnc(Oc2ccc(CNc3nc4ccc(NC5COC5)cc4n3C)cc2)nc1` [Compound 349]: the EC50 in test [1] was less than 10 µM. The IC50 at human 5-LOX was less than 1 µM.
The like results for `Nc1ccc2[nH]c(NCc3ccc(N4CCOC(COc5ccc(OC(F)(F)F)cc5)C4)nc3)nc2c1` (stereo not shown) [Compound 222] were, in that order, 10 to 20 µM and less than 1 µM.
The like results for `Cn1c(NCc2ccc(Oc3ncc4c(Cl)cccc4n3)cc2)nc2ccc(N)cc21` [Compound 434] were, in that order, less than 10 µM and less than 1 µM.
For `CC(C)c1cc(CNc2nc3ccc(N)cc3n2C)ccc1Oc1ncc(Cl)cn1` [Compound 395] the same measures were less than 10 µM and less than 1 µM.
Take `Cn1c(NCc2ccc(Oc3ccccn3)cc2)nc2ccc(N)cc21` [Compound 346]: in test [1], the EC50 was less than 10 µM. In addition, the IC50 at human 5-LOX is less than 1 µM.
For `CCC(Nc1nc2ccc(Nc3cc(C(F)(F)F)n(C)n3)cc2n1C)c1ccc(Oc2cnc(C(F)(F)F)cn2)cc1` (stereo not shown) [Compound 522] the same measures were less than 10 µM and greater than 10 µM.
In turn, `Cn1c(NCc2ccc(Oc3ccc(Cl)cn3)cc2)nc2ccc(N)cc21` [Compound 210] returned an EC50 in test [1] of less than 10 µM. The IC50 at human 5-LOX was less than 1 µM.
For `Cn1c(NCc2ccc(Oc3ccc(Cl)cn3)cc2Cl)nc2ccc(N)cc21` [Compound 285] the same measures were less than 10 µM and less than 1 µM.
`Cn1c(NCc2ccc(Oc3nc4ccc(Cl)cc4n3C)cc2)nc2ccc(N)cc21` [Compound 428] gave an EC50 in test [1] of less than 10 µM. The IC50 at human 5-LOX is less than 1 µM.
The like results for `Cn1c(NCc2ccc(Oc3cc(Cl)ncn3)cc2)nc2ccc(N)cc21` [Compound 393] were, in that order, less than 10 µM and less than 1 µM.
For `Cc1cc(CNc2nc3ccc(N)cc3n2C)ccc1Oc1ccc(Cl)cn1` [Compound 282] the same measures were less than 10 µM and less than 1 µM.
The like results for `CCN(CC)c1nc2cc(N)ccc2n1CCc1ccc(F)cc1` [Compound 47] were, in that order, greater than 20 µM and greater than 10 µM.
In turn, `Cn1c(NCc2ccc(Oc3ncc(Br)cn3)cc2)nc2ccc(N)cc21` [Compound 361] had an EC50 in test [1] of less than 10 µM. Moreover, the IC50 at human 5-LOX was less than 1 µM.
The like results for `CN(C)C(=O)c1cnc(Oc2ccc(CNc3nc4ccc(N)cc4n3C)cc2)nc1` [Compound 456] were, in that order, greater than 20 µM and less than 1 µM.
Turning to `Cn1nc(CF)cc1Nc1ccc2nc(NCc3ccc(Oc4ncc(Cl)cn4)cc3)n(C)c2c1` [Compound 539], the EC50 in test [1] was less than 10 µM. Besides, the IC50 at human 5-LOX was less than 1 µM.
For `Cn1c(NCc2ccc(Oc3ncc(Cl)cn3)cc2)nc2ccc(NC3CNC3)cc21` [Compound 407] the same measures were less than 10 µM and less than 1 µM.
Take `CN(C)c1nc2ccc(N)cc2n1CCOc1ccc(Cl)cc1` [Compound 39]: the EC50 in test [1] lay within 10 to 20 µM. Besides, at human 5-LOX, the IC50 was less than 1 µM.
For `COC(c1ccc(CNc2nc3ccc(N)cc3[nH]2)cc1)c1ccccn1` (stereo not shown) [Compound 181] the same measures were greater than 20 µM and less than 1 µM.
In test [1], `CN(C)c1nc2ccc(Nc3ccn(C)n3)cc2n1CCOc1ccc(OC(F)(F)F)cc1` [Compound 45] showed an EC50 of less than 10 µM. The half-inhibitory concentration (IC50) at human 5-LOX was greater than 10 µM.
Regarding `Cn1c(N2CCC(C(=O)Nc3ccc(OC(F)(F)F)cc3)C2)nc2ncc(N)cc21` (stereo not shown) [Compound 76], the half-maximal effective concentration (EC50) in test [1] is greater than 20 µM. Moreover, the IC50 at human 5-LOX is less than 1 µM.
Consider `Cn1c(NCc2ccc3c(ccn3-c3ccc(Cl)cn3)c2)nc2ccc(N)cc21` [Compound 451], for which the EC50 in test [1] is less than 10 µM. Besides, the IC50 at human 5-LOX is less than 1 µM.
In test [1], `CC(CC(F)(F)F)Nc1ccc2[nH]c(NCc3ccc(Oc4ccc(Cl)cc4)cc3)nc2c1` (stereo not shown) [Compound 134] yielded an EC50 of less than 10 µM. Also, the IC50 at human 5-LOX is less than 1 µM.
For `Cn1ccnc1C(=O)c1ccc(CNc2nc3ccc(N)cc3[nH]2)cc1` [Compound 173] the same measures were greater than 20 µM and less than 1 µM.
For `N#CCCNc1nc2ccc(N)cc2n1Cc1ccc(Oc2ccc(Cl)cc2)cc1` [Compound 252] the same measures were less than 10 µM and less than 1 µM.
The like results for `CN1CCN(CCNc2ccc3nc(NCc4ccc(Oc5ccc(Cl)cn5)cc4)n(C)c3c2)CC1` [Compound 333] were, in that order, less than 10 µM and less than 1 µM.
In test [1], `Cc1cc(CNc2nc3ccc(N)cc3n2C)cc(C)c1Oc1ncc(Cl)cn1` [Compound 411] yielded an EC50 greater than 20 µM. The IC50 on human 5-LOX was less than 1 µM.
As for `Cn1c(NCc2ccc(Oc3ncc4ccc(Cl)cc4n3)cc2)nc2ccc(N)cc21` [Compound 440], the EC50 in test [1] is less than 10 µM. Besides, on human 5-LOX, the IC50 was less than 1 µM.
The like results for `CC(c1ccc(Oc2ccc(Cl)cn2)cc1)n1c(N)nc2ccc(N)cc21` (stereo not shown) [Compound 247] were, in that order, less than 10 µM and less than 1 µM.
Turning to `Cn1c(NCc2ccc(Oc3ccc(Cl)cc3)cn2)nc2ccc(N)cc21` [Compound 297], the EC50 in test [1] was less than 10 µM. In addition, the IC50 at human 5-LOX was less than 1 µM.
